Literature values as cited in patent US8680055B2, “Methods for decreasing steroidogenesis in prostate cancer cells” (University of Southern California, priority 2009, dated 2014).

Assays:
[1] = test system: PCa resistant to multiple hormonal therapies; details: chemotherapy-naive men
[2] = test system: advanced CRPC; details: phase II trials

| SMILES | patients with declines in PSA ≧90% ([1]; 6 patients) [%] | patients with declines in PSA ≧50% ([1]; 12 patients) [%] | patients with declines in PSA ≧30% ([1]; 14 patients) [%] | median duration of response [2] | response rate by PSA working group (PSAWG) criteria [2] |
| --- | --- | --- | --- | --- | --- |
| CC(=O)O[C@H]1CC[C@@]2(C)C(=CC[C@@H]3[C@@H]2CC[C@]2(C)C(c4cccnc4)=CC[C@@H]32)C1 [abiraterone acetate] | 29 | 57 | 66 |  |  |
| CC(=O)N1CCN(c2ccc(OCC3COC(Cn4ccnc4)(c4ccc(Cl)cc4Cl)O3)cc2)CC1 (centres unmarked) [ketoconazole] |  |  |  | up to 7 months | 40-62% |
